Laboratory results: patent US20260048046A1, “METHOD FOR IMPROVING GROWTH PERFORMANCE IN FEEDLOT CATTLE” (Elanco US Inc., priority 2022, published 2026)

System: beef steers
Test: Lubabegron removal period study: carcass measures
Assay type: in vivo, cattle
Conditions: for Calculated YG / Ribeye Area / HCW / Marbling / Dressing: Lubabegron 3.5 mg/kg DM fed 56 d; for HCW: steers; for Marbling: 500 = Small; for Dressing: final liveweight with 4% shrink
Method: This experiment was conducted to evaluate the effect of removing lubabegron from feed for increasing intervals prior to slaughter on growth performance of steers.
Seven hundred English x Continental cross steers (initial BW=531±8.8 kg) were used in a randomized complete block design with seven treatments. Pen served as the experimental unit. […] Animals were managed as two-time replications with each replication containing five blocks (7 pens/block and 10 steers/pen). All ten blocks started and ended within 48 hours of each other. Cattle were weighed by pen using a 45,000-kg capacity pen scale (Model WI-130, Avery Weigh-Tronix LLC, Fairmont, MN; 3.66 m×21.34 m). All treatments were on feed for 71 d with harvest scheduled for 72 d. Because of an impending weather event, cattle were weighed to obtain a final BW one d early. Cattle were placed on their respective ration for the additional d and then shipped to the harvest facility the following morning.
657 head were transported to a harvest facility approximately 495 km from the research facility. Animals were scored for animal mobility using the North American Meat Institute (NAMI, 2015) scoring scale described by Edwards-Callaway et al., (2017) while in lairage. […] Experienced staff collected an ear tag number, plant identification (ID), and carcass sequence and applied a unique carcass ID. Data collected on the kill floor included HCW, instances of excessive trim (>approximately 9 kg), and prevalence of liver abscess (Brown et al., 1975). Other carcass measures were obtained via instrument grading.
Continuous variables were analyzed using the Mixed procedure of SAS (version 9.4; SAS Institute, Cary, NC). Block served as a random effect whereas treatment was fixed. Initial body weight was used to describe the uniformity of cattle randomized to treatment and used as a covariate when appropriate. Data were calculated with deads and removals excluded. Linear and quadratic effects of lubabegron removal were conducted as were individual comparisons for duration of removal (i.e., 0 vs 2 d; 0 vs 4 d, 0 vs 6 d; 0 vs 8 d and 0 vs 16 d). Fisher's Exact test was evaluated on mobility scores 1 and 2. No test was conducted on mobility scores of 3 or 4 because no scores were reported. Simple means and standard deviation of the tissues collected for the 5 animals were calculated.

CC(C)(Cc1ccc(Oc2ncccc2C#N)cc1)NC[C@H](O)COc1ccccc1-c1cccs1 [LUB, 2-{4-[2-({(2S)-2-Hydroxy-3-[2-(2-thienyl)phenoxy]propyl}amino)-2-methylpropyl]phenoxy}nicotinonitrile]
Calculated YG (removal duration 0 d): 3.08
Ribeye Area (removal duration 0 d): 91.0 cm^2
HCW (removal duration 0 d): 409 kg
Marbling (removal duration 0 d): 482
Dressing (removal duration 0 d): 62.7%
Calculated YG (removal duration 2 d): 3.20
Ribeye Area (removal duration 2 d): 90.3 cm^2
HCW (removal duration 2 d): 411 kg
Marbling (removal duration 2 d): 491
Dressing (removal duration 2 d): 62.7%
Calculated YG (removal duration 4 d): 3.21
Ribeye Area (removal duration 4 d): 90.3 cm^2
HCW (removal duration 4 d): 413 kg
Marbling (removal duration 4 d): 488
Dressing (removal duration 4 d): 62.8%
Calculated YG (removal duration 6 d): 3.06
Ribeye Area (removal duration 6 d): 91.6 cm^2
HCW (removal duration 6 d): 410 kg
Marbling (removal duration 6 d): 483
Dressing (removal duration 6 d): 62.9%
Calculated YG (removal duration 8 d): 3.14
Ribeye Area (removal duration 8 d): 90.3 cm^2
HCW (removal duration 8 d): 413 kg
Marbling (removal duration 8 d): 483
Dressing (removal duration 8 d): 63.0%
Calculated YG (removal duration 16 d): 3.18
Ribeye Area (removal duration 16 d): 89.0 cm^2
Marbling (removal duration 16 d): 484
Dressing (removal duration 16 d): 62.6%
Effect of removal duration on any measured carcass parameter (lubabegron 3.5 mg/kg DM, removal 0 to 16 d, P>0.05): no effect
Calculated yield grade improvement vs non-treated group (lubabegron fed for 56 d with a 0 d removal): 10.5%
Effects on BW and HCW of duration of lubabegron removal (removal up to 16 d): not affected
